Holding throughout (experiment): inhibition of tumour cell growth, NCI panel, 48 h
The test system of test [1] is MCF7.
Test [2] deals with HL-60.
Test [3] has as its system IGROV-1.
Test [4] concerns OVCAR-4.
The subject of test [5] is SNB-19.
Test [6] concerns BT-549.
Test [7] deals with SW-620.
The subject of test [8] is A549.
In test [9] the test system is 786-0.
Test [10] concerns SF-295.
For test [11], the system named is OVCAR-3.
For test [12], the system named is ACHN.
In test [13] the test system is SF-268.
The subject of test [14] is HCT-116.
Test [15] has as its system PC-3.
Test [16] relates to U-251.
The test system of test [17] is SN12C.
The subject of test [18] is DU-145.
Test [19] deals with CCRF-CEM.
Test [20] has as its system SK-OV-3.

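Test compounds were applied to cells in 96-well plates for 48 hours at 5 doses. At the GI50, growth is halved.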 Active and inactive are the calls of the source. Cut-off read from the data, not from the text of the source: active = GI50 up to about 1.1 µM and inactive = higher.

As for `NC(=O)CNC(=O)[C@@H]1C[C@@H](OCCC(=O)O)CN1C(=O)OCc1ccccc1`, the GI50 in [1], in test [2], in test [3], in [4], in test [5] and in [6] was > 100 µM (inactive) throughout. The GI50 in test [7], in [8], in test [9], in [10], in test [11] and in [12] was > 100 µM (inactive) each time. Further, the GI50 in [13], in test [14], in test [15], in test [16], in test [17] and in test [18] was > 100 µM (inactive) each time. Besides, the GI50 in [19] and in [20] was > 100 µM (inactive) in each case.
As to `COc1ccc(CC2c3cc(OC)c(OC)cc3CC[N+]2(C)C)cc1OC` (stereo not given), the GI50 in [1], in test [2], in test [3], in test [4], in test [5] and in test [6] was > 100 µM (inactive) each time. Moreover, the GI50 in test [7], in test [8], in test [9], in [10], in [11] and in test [12] was > 100 µM (inactive) throughout. In addition, the GI50 in test [13], in test [14], in test [15], in [16], in [17] and in test [18] was > 100 µM (inactive) each time. For the same compound, the GI50 in test [19] and in [20] was > 100 µM (inactive) each time.
With `OC1(c2ccc(Cl)cc2)c2ccccc2C2=NCc3ccccc3CN21` (stereo not given), the GI50 in test [1] was 4.8 µM (inactive); in [2] it was 4.94 µM (inactive); in test [3], 3.75 µM (inactive); in [4] it was 12.6 µM (inactive); in test [5], 3.51 µM (inactive); in [6] it was 18.6 µM (inactive). In addition, the GI50 in [7] was 2.69 µM (inactive); in test [8] it was 4.58 µM (inactive); in [9], 5.45 µM (inactive); in test [10], 15.3 µM (inactive); in test [11] it was 1.7 µM (inactive); in test [12], 4.45 µM (inactive). Moreover, the GI50 in test [13] is 12.4 µM (inactive); in test [14] it was 6.62 µM (inactive); in test [15], 4.74 µM (inactive); in test [16], 7.24 µM (inactive); in test [17], 17.5 µM (inactive); in test [18] it was 17.9 µM (inactive). Further, the GI50 in [19] is 7.6 µM (inactive); in test [20], 1.22 µM (inactive).
For `CC1OC(OC2C(O[C@H]3CC[C@@]4(C)C(=CC[C@H]5[C@@H]6C[C@@H]7O[C@]8(CC[C@@H](C)CO8)[C@@H](C)[C@@H]7[C@@]6(C)CC[C@@H]54)C3)OC(CO)C(OC3OC(CO)C(O)C3O)C2O)C(O)C(O)C1O` (stereo not given in full), the GI50 was 0.774 µM (active) in test [1]; 0.964 µM (active) in [2]; 0.847 µM (active) in test [3]; 0.931 µM (active) in test [4]; 0.762 µM (active) in test [5]; 0.975 µM (active) in test [6]. Further, the GI50 is 0.766 µM (active) in test [7]; 0.634 µM (active) in test [8]; 0.673 µM (active) in test [9]; 0.745 µM (active) in [10]; 0.918 µM (active) in test [11]; 0.855 µM (active) in [12]. Besides, the GI50 in [13] is 0.841 µM (active); in [14], 0.851 µM (active); in test [15], 0.776 µM (active); in test [16] it was 0.619 µM (active); in test [17], 0.571 µM (active); in test [18] it was 0.984 µM (active). Besides, the GI50 in test [19] was 0.16 µM (active); in [20] it was 0.94 µM (active).
`C/C=C(/C)C(=O)O[C@H]1CCN2CC=C(COC(=O)[C@@](O)([C@H](C)OC)C(C)(C)O)[C@H]12`: the GI50 in test [1], in [2], in test [3], in [4], in [5] and in [6] was > 100 µM (inactive) throughout. Also, the GI50 in test [7], in [8], in test [9], in test [10], in [11] and in test [12] was > 100 µM (inactive) each time. The GI50 in test [13], in [14], in test [15], in test [16], in test [17] and in test [18] was > 100 µM (inactive) throughout. Further, the GI50 in test [19] and in test [20] was > 100 µM (inactive) in each case.
Turning to `COC(=O)C(Cc1ccc2c(c1)CCCC2)Cc1cc2c(cc1C(O)OC)CCC2` (stereo not given), the GI50 in test [1] is 29.4 µM (inactive); in [2], 11.8 µM (inactive); in test [3], > 100 µM (inactive); in test [4], 80 µM (inactive); in test [5], > 100 µM (inactive); in [6] it was > 100 µM (inactive). For the same compound, the GI50 was 67.1 µM (inactive) in test [7]; 41.5 µM (inactive) in test [8]; 33.3 µM (inactive) in test [9]; 61.5 µM (inactive) in test [10]; 89.7 µM (inactive) in test [11]; 67.1 µM (inactive) in [12]. Moreover, the GI50 in [13] is 49.9 µM (inactive); in [14], 39.6 µM (inactive); in test [15] it was 19.5 µM (inactive); in test [16], 49.4 µM (inactive); in test [17], 96.2 µM (inactive); in test [18] it was > 100 µM (inactive). In addition, the GI50 in [19] is 58.9 µM (inactive); in test [20], > 100 µM (inactive).
For `CC(=O)Nc1ccc2nncnc2c1`, the GI50 in test [1], in [2], in [3], in test [4], in [5] and in test [6] was > 100 µM (inactive) throughout. For the same compound, the GI50 in [7], in test [8], in test [9], in test [10], in test [11] and in [12] was > 100 µM (inactive) in each case. For the same compound, the GI50 in test [13], in test [14], in test [15], in test [16], in test [17] and in [18] was > 100 µM (inactive) throughout. Moreover, the GI50 in test [19] and in test [20] was > 100 µM (inactive) throughout.
`N#C[BH2-][n+]1ccc(C(=O)NNCC(F)(F)F)cc1`: the GI50 in test [1], in test [2], in test [3], in test [4], in test [5] and in test [6] was > 100 µM (inactive) in each case. Also, the GI50 in test [7], in [8], in test [9], in test [10], in test [11] and in test [12] was > 100 µM (inactive) each time. For the same compound, the GI50 in test [13], in test [14], in test [15], in [16], in test [17] and in test [18] was > 100 µM (inactive) throughout. Besides, the GI50 in test [19] and in [20] was > 100 µM (inactive) throughout.
For `CC1=NN(c2ccccc2)C(=O)/C1=C1\SC(c2ccccc2)(c2ccccc2)c2ccccc21`, the GI50 in [1], in test [2], in test [3], in [4], in test [5] and in test [6] was > 100 µM (inactive) throughout. Also, the GI50 in test [7], in test [8], in test [9], in test [10], in test [11] and in test [12] was > 100 µM (inactive) throughout. Moreover, the GI50 was > 100 µM (inactive) in test [13]; 50.4 µM (inactive) in test [14]; > 100 µM (inactive) in test [15]; 3.78 µM (inactive) in test [16]; > 100 µM (inactive) in test [17]; > 100 µM (inactive) in test [18]. The GI50 in test [19] and in test [20] was > 100 µM (inactive) throughout.
Take `C=C1CC(O)C2C(=C)C(=O)OC2C2C(C)C(=O)CC12` (stereo not given): the GI50 is 9.4 µM (inactive) in test [1]; 3.01 µM (inactive) in test [2]; 18.4 µM (inactive) in test [3]; 17.6 µM (inactive) in test [4]; 18.8 µM (inactive) in [5]; 7.87 µM (inactive) in test [6]. In addition, the GI50 in test [7] is 5.12 µM (inactive); in test [8] it was 20.3 µM (inactive); in test [9] it was > 10 µM (inactive); in test [10], 27.6 µM (inactive); in [11], 11.6 µM (inactive); in test [12], 5.32 µM (inactive). For the same compound, the GI50 was 22.2 µM (inactive) in test [13]; 10 µM (inactive) in test [14]; 36.6 µM (inactive) in test [15]; 23 µM (inactive) in test [16]; 15.5 µM (inactive) in [17]; 15.3 µM (inactive) in test [18]. The results for the GI50 in test [19] and in test [20] were 4.08 µM (inactive) and 33 µM (inactive), respectively.

The record behind these values is ChEMBL document CHEMBL1201862, “PubChem BioAssay data set” (2004).
